According to US8198273B2, “Compounds and methods for kinase modulation, and indications therefor” (Plexxikon Inc., priority 2009, dated 2012):
pIC50: −log10 of the molar value.

Legend:
B-Raf = B-Raf (Homo sapiens, UniProt P15056); test: B-Raf biochemical kinase inhibition (AlphaScreen, biotin-MEK1 substrate); conditions: 100 μM ATP
In short: (§1)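 Eight-point compound series (made from a 0.1 mM DMSO stock) tested against each Raf enzyme with biotin-MEK1 substrate and 100 μM final ATP.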

B-Raf V600E = B-Raf V600E (Homo sapiens, UniProt P15056, V600E); test: B-Raf V600E biochemical kinase inhibition (AlphaScreen, biotin-MEK1 substrate); conditions: 100 μM ATP
Sequence of B-Raf V600E (P15056 whole entry V600E): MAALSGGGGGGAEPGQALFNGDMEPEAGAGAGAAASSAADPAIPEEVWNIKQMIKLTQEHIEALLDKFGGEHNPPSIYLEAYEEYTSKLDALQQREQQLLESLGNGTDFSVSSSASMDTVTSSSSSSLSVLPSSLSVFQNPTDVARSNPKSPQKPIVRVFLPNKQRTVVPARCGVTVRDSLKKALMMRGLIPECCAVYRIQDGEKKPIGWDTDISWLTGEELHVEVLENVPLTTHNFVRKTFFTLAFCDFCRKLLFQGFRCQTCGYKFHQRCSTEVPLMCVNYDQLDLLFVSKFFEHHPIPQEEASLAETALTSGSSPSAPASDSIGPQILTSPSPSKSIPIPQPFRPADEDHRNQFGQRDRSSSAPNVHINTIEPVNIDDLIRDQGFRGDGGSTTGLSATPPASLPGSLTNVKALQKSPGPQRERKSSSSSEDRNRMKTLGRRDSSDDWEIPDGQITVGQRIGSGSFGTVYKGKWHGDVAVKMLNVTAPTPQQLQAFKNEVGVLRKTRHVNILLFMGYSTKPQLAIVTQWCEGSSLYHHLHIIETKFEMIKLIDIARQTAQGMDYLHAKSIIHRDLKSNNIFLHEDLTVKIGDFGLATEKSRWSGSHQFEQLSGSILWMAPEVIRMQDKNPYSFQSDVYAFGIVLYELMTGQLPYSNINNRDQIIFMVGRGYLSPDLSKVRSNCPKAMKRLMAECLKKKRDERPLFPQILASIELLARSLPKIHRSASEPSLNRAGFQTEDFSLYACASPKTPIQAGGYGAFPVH
In short: as §1

c-Raf-1 = c-Raf-1 (Homo sapiens, UniProt P04049); test: c-Raf-1 biochemical kinase inhibition (AlphaScreen, biotin-MEK1 substrate); conditions: 100 μM ATP
Sequence of c-Raf-1 (P04049 whole entry): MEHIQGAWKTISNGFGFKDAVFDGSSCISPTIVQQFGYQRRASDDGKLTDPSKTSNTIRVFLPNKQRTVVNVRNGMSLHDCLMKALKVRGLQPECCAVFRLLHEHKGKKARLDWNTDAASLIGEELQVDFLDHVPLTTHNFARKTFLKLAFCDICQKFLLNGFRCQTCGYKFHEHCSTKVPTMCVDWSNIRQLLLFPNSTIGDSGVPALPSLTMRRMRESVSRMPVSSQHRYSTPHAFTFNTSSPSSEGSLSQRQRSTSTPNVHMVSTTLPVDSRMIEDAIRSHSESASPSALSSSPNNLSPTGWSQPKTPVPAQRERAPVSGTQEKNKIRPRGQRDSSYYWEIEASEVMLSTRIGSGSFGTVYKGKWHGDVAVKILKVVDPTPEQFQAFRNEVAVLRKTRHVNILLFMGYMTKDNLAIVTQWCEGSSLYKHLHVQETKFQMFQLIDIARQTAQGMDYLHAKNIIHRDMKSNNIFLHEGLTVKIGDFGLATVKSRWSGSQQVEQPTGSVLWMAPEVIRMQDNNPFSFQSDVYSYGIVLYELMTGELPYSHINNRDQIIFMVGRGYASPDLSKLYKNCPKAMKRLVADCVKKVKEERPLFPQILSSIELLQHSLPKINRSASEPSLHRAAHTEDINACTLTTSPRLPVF
In short: as §1

[1] = Relative solubility by turbidity in aqueous buffers of varying pH; type: physicochemical
In short: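 Turbidity endpoint: concentration where optical density at 490, 535 and 650 nm exceeds 0.01, three-wavelength average used. Buffers at pH 1.5, 4.5, 6.8 and 7.4; DMSO serial dilutions of 25 mM stock spiked 1 μL into 99 μL buffer. Low <31.3, moderate 31.3–250, high >250 μM.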

CYP1A2 = target: T1, CYP1A2 (Homo sapiens, UniProt P05177); test: CYP1A2 inhibition (fluorescent substrate); type: in vitro ADME; conditions: CYP1A2, CEC substrate; read-out: Cyp IC50 1A2
T1 sequence (P05177 1-516): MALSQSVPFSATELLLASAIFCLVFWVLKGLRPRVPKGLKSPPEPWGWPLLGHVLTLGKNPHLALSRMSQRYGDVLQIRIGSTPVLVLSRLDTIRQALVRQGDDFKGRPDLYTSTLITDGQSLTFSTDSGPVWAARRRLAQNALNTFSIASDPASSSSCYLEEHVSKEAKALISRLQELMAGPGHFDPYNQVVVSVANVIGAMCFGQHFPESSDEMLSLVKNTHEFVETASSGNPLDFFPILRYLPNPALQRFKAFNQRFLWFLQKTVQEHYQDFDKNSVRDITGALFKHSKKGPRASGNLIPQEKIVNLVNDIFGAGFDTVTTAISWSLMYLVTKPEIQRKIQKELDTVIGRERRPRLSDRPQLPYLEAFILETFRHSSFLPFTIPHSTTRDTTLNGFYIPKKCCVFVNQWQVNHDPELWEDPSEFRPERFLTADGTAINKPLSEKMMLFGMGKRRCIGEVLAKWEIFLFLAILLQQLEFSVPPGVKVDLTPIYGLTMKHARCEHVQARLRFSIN
In short: (§2)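 10-pt 1:1 serial dilution in co-factor mix (DMSO stock 100 mM); 10 min preincubation, 37 °C; reaction at 37 °C. Readout: fluorescent metabolite of probe substrate. IC50 from signal vs [compound].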

CYP2C19 = CYP2C19 (Homo sapiens, UniProt P33261); test: CYP2C19 inhibition (fluorescent substrate); type: in vitro ADME; conditions: CYP2C19, CEC substrate; read-out: Cyp IC50 2C19
Sequence of CYP2C19 (P33261 whole entry): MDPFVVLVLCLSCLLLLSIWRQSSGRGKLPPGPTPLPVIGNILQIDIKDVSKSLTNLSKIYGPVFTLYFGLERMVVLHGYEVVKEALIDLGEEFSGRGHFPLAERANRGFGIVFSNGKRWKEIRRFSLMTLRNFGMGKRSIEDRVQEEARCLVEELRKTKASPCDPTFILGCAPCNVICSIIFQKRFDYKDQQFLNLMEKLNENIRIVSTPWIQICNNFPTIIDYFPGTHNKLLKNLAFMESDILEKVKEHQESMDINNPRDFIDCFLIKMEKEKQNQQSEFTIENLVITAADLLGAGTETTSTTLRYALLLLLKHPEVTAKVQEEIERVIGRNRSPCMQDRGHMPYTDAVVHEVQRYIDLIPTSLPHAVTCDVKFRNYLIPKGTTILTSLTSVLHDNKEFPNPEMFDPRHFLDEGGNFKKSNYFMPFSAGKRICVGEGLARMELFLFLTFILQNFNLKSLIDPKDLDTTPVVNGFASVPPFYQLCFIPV
In short: as §2

CYP3A4(BFC) = CYP3A4(BFC) (Homo sapiens, UniProt P08684); test: CYP3A4(BFC) inhibition (fluorescent substrate); type: in vitro ADME; conditions: read-out: Cyp IC50 3A4(BFC)
Sequence of CYP3A4(BFC) (P08684 whole entry): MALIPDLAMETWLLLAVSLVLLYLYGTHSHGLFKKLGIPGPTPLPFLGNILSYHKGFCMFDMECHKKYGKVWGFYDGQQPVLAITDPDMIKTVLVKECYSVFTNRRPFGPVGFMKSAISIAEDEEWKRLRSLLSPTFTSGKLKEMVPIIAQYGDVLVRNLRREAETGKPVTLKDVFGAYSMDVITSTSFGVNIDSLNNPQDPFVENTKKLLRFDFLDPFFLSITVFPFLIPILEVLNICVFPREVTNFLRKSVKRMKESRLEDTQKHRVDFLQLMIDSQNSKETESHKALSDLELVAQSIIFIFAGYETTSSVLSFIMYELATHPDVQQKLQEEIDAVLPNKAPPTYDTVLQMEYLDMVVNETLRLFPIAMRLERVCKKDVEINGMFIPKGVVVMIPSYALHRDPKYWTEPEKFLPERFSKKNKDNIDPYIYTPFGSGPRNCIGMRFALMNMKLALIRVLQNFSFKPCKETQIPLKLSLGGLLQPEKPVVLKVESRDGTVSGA
In short: (§3)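 Compound, from a 100 mM DMSO stock and diluted 1:1 over 10 points in co-factor mix, was incubated at 37° C with enzyme and a known substrate. Decrease in fluorescent product against concentration gave the IC50.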

CYP3A4(BQ) = CYP3A4(BQ) (Homo sapiens, UniProt P08684); test: CYP3A4(BQ) inhibition (fluorescent substrate); type: in vitro ADME; conditions: read-out: Cyp IC50 3A4(BQ)
Sequence of CYP3A4(BQ) (P08684 whole entry): as above
In short: as §3

Sequence of B-Raf (P15056 whole entry): as the sequence (P15056 whole entry V600E) above, with E600V counted along it

pIC50 (B-Raf): > 7.00
pIC50 (B-Raf V600E): > 7.00
pIC50 (c-Raf-1): > 7.00
pIC50 (CYP1A2): < 5.00
pIC50 (CYP2C19): < 5.00
pIC50 (CYP3A4(BFC)): < 5.00
pIC50 (CYP3A4(BQ)): < 5.00
Compound: CCCS(=O)(=O)Nc1ccc(F)c(C(=O)c2c[nH]c3ncc(-c4ccc(N(C)C)nc4)cc23)c1F [P-2229, Propane-1-sulfonic acid {3-[5-(6-dimethylamino-pyridin-3-yl)-1H-pyrrolo[2,3-b]pyridine-3-carbonyl]-2,4-difluoro-phenyl}-amide]
turbidity threshold (L, M, H) 7.4 ([1]; HEPES pH 7.4): M (moderate solubility if the threshold concentration is 31.3 μM to 250 μM)
turbidity threshold (L, M, H) 4.5 ([1]; SIF pH 4.5): L (low solubility if the threshold concentration is <31.3 04)
turbidity threshold (L, M, H) 6.8 ([1]; SIF pH 6.8): M (moderate solubility if the threshold concentration is 31.3 μM to 250 μM)
turbidity threshold (L, M, H) 1.4 ([1]; buffer pH 1.4 (SGF)): M (moderate solubility if the threshold concentration is 31.3 μM to 250 μM)
